Data taken from article PMC9227944, “Simultaneous Spray Drying for Combination Dry Powder Inhaler Formulations” (Pharmaceutics, 2022).
In brackets after ≈: the same amount, converted by molar mass.

Experiments:
[1] = ligand exchange; cited from earlier work
human recombinant VEGF = target: T1, human recombinant VEGF (Homo sapiens, UniProt P15692); experiment: VEGF binding competitive ELISA assay; details: compared with BEV stock positive control
T1 construct: purchased R&D Systems
T1 sequence (P15692 1-191 isoform P15692-4): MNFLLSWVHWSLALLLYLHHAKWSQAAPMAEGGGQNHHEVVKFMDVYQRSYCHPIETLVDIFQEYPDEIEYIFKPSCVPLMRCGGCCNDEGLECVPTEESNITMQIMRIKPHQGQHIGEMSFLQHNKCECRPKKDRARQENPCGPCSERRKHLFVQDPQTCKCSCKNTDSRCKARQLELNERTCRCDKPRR
Method: Spray-dried powders or as-received API were reconstituted to a 4 mg/mL active in the buffered saline and allowed to dissolve for 60 min. […] Standards were prepared according to the kit protocol.
After incubation, 50 µL of the assay diluent was added to each of the wells of the supplied plate. A total of 200 µL each of the sample (in triplicate) and standards were added to respective wells and incubated for 2 h at ambient temperature. The plate was washed three times with 400 µL of the kit’s wash buffer, then 200 µL of the VEGF-conjugate was added. The plate was incubated for another 2 h, then washed again three times, as previously. A 1:1 mixture of the kit’s color reagent A and B were mixed, then 200 µL was added to each well. After a 30 min incubation at ambient temperature, 50 µL of stop solution was added to each well. The absorbances were read on an M5e plate reader (Molecular Devices, San Jose, CA, USA) using a 450 nm detection wavelength and 540 nm as the blank wavelength for baseline correction. The quantified concentration of unbound VEGF in pg/mL was reported. All samples were analyzed in triplicate.
Briefly, reconstituted simul-spray powders were incubated with VEGF protein in the assay buffer. Next, the quantity of unbound VEGF in the solution was quantified by a commercially available VEGF ELISA assay kit.

[2] = Chemical stability in solution; assay type: physicochemical; details: bevacizumab and cisplatin in the same aqueous solution
physchem = experiment: physchem
Method: The solutions were centrifuged to remove excess solids. A total of 50 µL of the supernatant was pipetted into an aluminum pan and placed into a Thermogravimetric Analyzer (Discovery TGA, TA Instruments, New Castle, DE, USA). The sample was heated to 130 °C at a ramp rate of 50 °C/min and then held isothermal for 10 min to allow all of the solvent to evaporate. The final mass of the sample (of the known 50 µL volume) was recorded and used to determine the solubility in mg/mL. Samples were measured in triplicate.
Solubility screening was performed on the three small molecule APIs and the L-leucine excipient in water, 90/10 methanol/water and 80/20 ethanol/water by weight. These solvent ratios were chosen to maximize the solubility of L-leucine and API. Additional details on solubility and formulation selection can be found in the Supplementary Information.

[3] = organic solvent or mixture, thermodynamic from solid, Solubility, mg/mL in 90/10 Methanol/Water
[4] = water, thermodynamic from solid, Solubility, mg/mL in Water

VEGF inhibition (in words) (human recombinant VEGF) | Solubility, mg/mL in 80/20 Ethanol/Water (physchem) | solubility (physchem; organic solvent or mixture, thermodynamic from solid, Solubility, mg/mL in 80/20 Ethanol/Water) | solubility (physchem; [3]) | solubility (physchem; [4]) | Solubility in water at neutral pH (physchem) | solubility (physchem; 80/20 ethanol/water by weight, organic solvent or mixture, thermodynamic from solid, Solubility, mg/mL in 80/20 Ethanol/Water, 80/20 ethanol/water by mass) | solubility (physchem; 90/10 methanol/water by weight, organic solvent or mixture, thermodynamic from solid, Solubility, mg/mL in 90/10 Methanol/Water, 90/10 methanol/water by mass) | solubility (physchem; water, Solubility in water at neutral pH, water at neutral pH) | SMILES | Chemical stability in aqueous solution [1] | Chemical stability when co-dissolved [2]
 | 2.0 mg/mL (≈ 15.2 mM) | 1.7 mg/mL (≈ 13 mM) | 2.5 mg/mL (≈ 19.1 mM) | 21 mg/mL (≈ 160 mM) |  |  |  |  | CC(C)C[C@H](N)C(=O)O [L-Leucine, L-leucine] |  | 
do not inhibit VEGF measurably |  |  | < 1 mg/mL | < 1 mg/mL | sparingly soluble |  |  |  | CC(=O)O[C@H]1C(=O)[C@@]2(C)[C@H]([C@H](OC(=O)c3ccccc3)[C@]3(O)C[C@H](OC(=O)[C@H](O)[C@@H](NC(=O)c4ccccc4)c4ccccc4)C(C)=C1C3(C)C)[C@]1(OC(C)=O)CO[C@@H]1C[C@@H]2O [PTX, paclitaxel] |  | 
do not inhibit VEGF measurably |  |  |  | < 1 mg/mL |  | < 1 mg/mL | 25 mg/mL (≈ 63.5 mM) | < 0.1 mg/mL | C#Cc1cccc(Nc2ncnc3cc(OCCOC)c(OCCOC)cc23)c1 [ERL, erlotinib] |  | 

SMILES | VEGF inhibition (in words) (human recombinant VEGF) | Solubility, mg/mL in 80/20 Ethanol/Water (physchem) | solubility (physchem; organic solvent or mixture, thermodynamic from solid, Solubility, mg/mL in 80/20 Ethanol/Water) | solubility (physchem; [3]) | solubility (physchem; [4]) | Solubility in water at neutral pH (physchem) | solubility (physchem; 80/20 ethanol/water by weight, organic solvent or mixture, thermodynamic from solid, Solubility, mg/mL in 80/20 Ethanol/Water, 80/20 ethanol/water by mass) | solubility (physchem; 90/10 methanol/water by weight, organic solvent or mixture, thermodynamic from solid, Solubility, mg/mL in 90/10 Methanol/Water, 90/10 methanol/water by mass) | solubility (physchem; water, Solubility in water at neutral pH, water at neutral pH) | Chemical stability in aqueous solution [1] | Chemical stability when co-dissolved [2]
N.N.[Cl][Pt][Cl] [CP, cisplatin] | do not inhibit VEGF measurably |  |  |  |  |  |  |  |  | not chemically stable in an aqueous solution for longer than a few hours | not chemically stable when co-dissolved in the same solution
